Non-standard residues stand in square brackets, D forms with d. Primed or numbered codes have the meaning given here. No end group written: not given here. Ida(3) = iminodiacetic acid linker, Lys side-chain amines bound to its two carboxyl groups; Ida(4) = iminodiacetic acid linker (dimerization linker bound to lysine side chain); Ida″ = iminodiacetic acid linker bound to the Lys side-chain amine, forming a dimer; Dip = N[C@H](C(=O)O)C(c1ccccc1)c1ccccc1; Cha = N[C@@H](CC1CCCCC1)C(=O)O
These substances were tested on HUVECs. Settings: HUVEC proliferation, bFGF at 10 ng/ml or VEGF at 5 ng/ml, 48 hours, BrdU incorporation; read-out: IC50 on HUVECs.
Format: cell-based
Procedure, shortened: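 Proliferation read-out: BrdU incorporation after 48-hour culture (37 ° C, 5% CO2) with graded peptide doses. Cells were in EBM with 2% FCS at 5,000 per well, driven by VEGF (5 ng/ml) or bFGF (10 ng/ml), added after ≥12-hour attachment.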

Substance	IC50
494 (Ac-PRNRRQAVAIYFK(Ida″); not fully specified (C-terminus); also: homodimer via Ida linker on Lys13 side chain) [compound 494]	10 to 30 µM
KTKRKRKKQRVAAAYEEIFVQNM [compound 50]	> 30 µM
184 (XRRRRQRVRIIF; Xaa = Acylated Histidine; Dimeric peptide wherein the C terminus of Phe in position 12 of one peptide chain is covalently bound to one of the amino groups of a Lysine linker and Phe of the remaining peptide chain is covalently bound to the other amino group of the Lysine linker.) [compound 184]	< 10 µM
KRKRKKQQRVKIAYEEIFV [compound 75]	10 to 30 µM
356 (Ac-A[dR]RRRQRVAIIFK; not fully specified) [compound 356]	> 30 µM
430 (Ac-ARRRRQAVAIK(Ida(4))YF; also: homodimer via Ida linker at K11) [compound 430]	< 10 µM
491 (Ac-PRRRRQPVAIK(Ida″)F; also: homodimer via Ida linker on Lys11 side chain) [compound 491]	10 to 30 µM
460 (Ac-ARRK(Ida(3))RQAVAIYF; also: homodimer via Ida linker on Lys side chains, linker at 4 via Ida, other end not in the chain) [compound 460]	10 to 30 µM
KTKAARKKQRVKIAYEEIFVQNM [compound 55]	> 30 µM
KRKRKKQRVKIAYEEIFVKNM [compound 3]	10 to 30 µM
KTKRKRKKQRVKIIFAQNM [compound 108]	10 to 30 µM
246 (Ac-RRRRHQHVRIIF; also: homodimer: C-termini of two chains bound to the two amines of a Lys linker) [compound 246]	< 10 µM
496 (Ac-PRHRRQAVAIYFK(Ida″); not fully specified (C-terminus); also: homodimer via Ida linker on Lys13 side chain) [compound 496]	10 to 30 µM
273 (Ac-RARRRQAVAITFK-NH2; not fully specified (residue 13); also: homodimer: Lys13 side chain bound to Ida linker) [compound 273]	< 10 µM
187 (Ac-RRRHRQRVRIIF; also: dimer: C-terminal Phe bound to an amino group of a Lys linker, 2 chains per Lys) [compound 187]	< 10 µM
362 (Ac-ARRRRQRVA[Cha]YFK-NH2; not fully specified (residue 13); also: homodimer: Lys13 side chains joined by Ida (iminodiacetic acid) linker) [compound 362]	< 10 µM
300 (Ac-RRRRRQAVRIPIPFK-NH2; not fully specified (residue 15); also: homodimer: Lys15 side chain bound to Ida linker) [compound 300]	10 to 30 µM
393 (Ac-ARRRRQAVQIYFK; not fully specified (residue 13, C-terminus); also: homodimer of residues 1-13 via Ida linker at Lys13 side chain) [compound 393]	< 10 µM
KTKRKRKKQRYEEIFVQNM [compound 30]	> 30 µM
492 (Ac-ARRRNQSVAIKF; not fully specified (residue 11); also: homodimer: Lys11 side chain bound to Ida linker (Boc on Ida N)) [compound 492]	10 to 30 µM
TKRKRKKQRVKIAYEEIFVQNM [compound 19]	> 30 µM

Substance	IC50
352 (Ac-ARRRRQRVAIYIK-NH2; not fully specified (residue 13); also: homodimer of residues 1-13 via Ida linker on K13 side chain) [compound 352]	< 10 µM
408 (Ac-PRRRRQAVAIYFK; not fully specified (residue 13, C-terminus); also: homodimer via Ida linker on Lys side chains, linker at 13 via Ida, other end not in the chain) [compound 408]	< 10 µM
365 (Ac-ARRRRQRVATYFK-NH2; not fully specified (residue 13); also: homodimer of residues 1-13 via Ida linker on K13 side chain) [compound 365]	> 30 µM
272 (Ac-RARRRQAVAINFK-NH2; not fully specified (residue 13); also: homodimer via Ida linker on Lys13 side chain) [compound 272]	< 10 µM
456 (Ac-KRRRRQAVAIVF; not fully specified (residue 1); also: homodimer via Ida linker on K1 side chain) [compound 456]	> 30 µM
KTKRKRKKQRVKIAYEEVFVKNM [compound 6]	< 10 µM
TKRKRKKQRVKIIFV [compound 86]	10 to 30 µM
KRKRKKQRVKIAYEEIFV [compound 61]	10 to 30 µM
350 (Ac-ARRRRQRVAIY[Dip]K-NH2; not fully specified (residue 13); also: homodimer of residues 1-13 via Ida linker on K13 side chain) [compound 350]	< 10 µM
461 (Ac-ARRRK(Ida(3))QAVAIYF; also: homodimer via Ida linker on Lys side chains, linker at 5 via Ida, other end not in the chain) [compound 461]	10 to 30 µM
479 (Ac-PRRRVQAVAIYFK(Ida(3)); not fully specified (C-terminus); also: homodimer via Ida linker on Lys13 side chain) [compound 479]	10 to 30 µM
KTKRKRKKQRVKAIFVQNM [compound 111]	10 to 30 µM
385 (Ac-ARRRRQMVAIYFK-NH2; not fully specified (residue 13); also: homodimer via Ida linker on Lys13 side chain, Ida amine Boc) [compound 385]	< 10 µM
451 (Ac-NRRRRQAVAIVFK-NH2; also: homodimer via Ida linker at K13) [compound 451]	> 30 µM
275 (Ac-RARRRQAVAIYFK-NH2; not fully specified (residue 13); also: homodimer via Ida linker on Lys13 side chain) [compound 275]	< 10 µM
256 (Ac-ARRRRQRV[dA]IIFK; not fully specified (C-terminus); also: homodimer: side chain of Lys13 bound to an Ida linker) [compound 256]	< 10 µM
KTKRKRKKQRVKIAYEE [compound 18]	10 to 30 µM
396 (Ac-ARRRRQAVWIYFK; not fully specified (residue 13, C-terminus); also: homodimer of residues 1-13 via Ida linker at Lys13 side chain) [compound 396]	< 10 µM
KRKKQRVKIAYEEIFVQNM [compound 22]	> 30 µM
208 (Ac-RRRARQRVAIIF; also: dimer: Phe C-termini joined via Lys linker) [compound 208]	< 10 µM
RVKIAYEEIFVQNM [compound 44]	> 30 µM
